Patent US20060009445A1, “Tumor-inhibiting anellated azepinone derivatives” (Faustus Forschungs CIE. Translational Cancer Research GmbH, priority 2002, published 2006)

Columns and labels:
Assay type in all cases: cell-based
MOLT-4 = experiment: XTT assay, tumor-inhibiting effect in vitro, MOLT-4; settings: Homo sapiens, incubation period 48 hours
Description: (§1) The tumor-inhibiting effect was tested in vitro in the XTT assay with an example of various cell lines. The incubation period was 48 hours (IC50 values in μM).

CCRF-CEM = experiment: XTT assay, tumor-inhibiting effect in vitro, CCRF-CEM; settings: Homo sapiens, incubation period 48 hours
Description: as §1

NCI-H226 = experiment: XTT assay, tumor-inhibiting effect in vitro, NCI-H226; settings: Homo sapiens, incubation period 48 hours
Description: as §1

SK-MEL-28 = experiment: XTT assay, tumor-inhibiting effect in vitro, SK-MEL-28; settings: Homo sapiens, incubation period 48 hours
Description: as §1

SK-MEL-5 = experiment: XTT assay, tumor-inhibiting effect in vitro, SK-MEL-5; settings: Homo sapiens, incubation period 48 hours
Description: as §1

NCI-H460 = experiment: XTT assay, tumor-inhibiting effect in vitro, NCI-H460; settings: Homo sapiens, incubation period 48 hours
Description: as §1

HCT-15 = experiment: XTT assay, tumor-inhibiting effect in vitro, HCT-15; settings: Homo sapiens, incubation period 48 hours
Description: as §1

HT-29 = experiment: XTT assay, tumor-inhibiting effect in vitro, HT-29; settings: Homo sapiens, incubation period 48 hours
Description: as §1

K-562 = experiment: XTT assay, tumor-inhibiting effect in vitro, K-562; settings: Homo sapiens, K562, incubation period 48 hours
Description: as §1

COLO 205 = experiment: XTT assay, tumor-inhibiting effect in vitro, COLO 205; settings: Homo sapiens, incubation period 48 hours
Description: as §1

HCT-116 = experiment: XTT assay, tumor-inhibiting effect in vitro, HCT-116; settings: Homo sapiens, incubation period 48 hours
Description: as §1

OVCAR 3 = experiment: XTT assay, tumor-inhibiting effect in vitro, OVCAR 3; settings: Homo sapiens, incubation period 48 hours
Description: as §1

SW-620 = experiment: XTT assay, tumor-inhibiting effect in vitro, SW-620; settings: Homo sapiens, incubation period 48 hours
Description: as §1

MCF-7 = experiment: XTT assay, tumor-inhibiting effect in vitro, MCF-7; settings: Homo sapiens, MCF7, incubation period 48 hours
Description: as §1

IC50 (MOLT-4)	IC50 (CCRF-CEM)	IC50 (NCI-H226)	IC50 (SK-MEL-28)	IC50 (SK-MEL-5)	IC50 (NCI-H460)	IC50 (HCT-15)	IC50 (HT-29)	IC50 (K-562)	IC50 (COLO 205)	IC50 (HCT-116)	IC50 (OVCAR 3)	IC50 (SW-620)	IC50 (MCF-7)	SMILES
2.9 µM	1.66 µM	7.19 µM	7.98 µM	10 µM	9.51 µM	0.74 µM	6.61 µM	1.56 µM	5.25 µM	2.56 µM	6.82 µM	3.83 µM	10.4 µM	Oc1ccccc1/C=N/N=C1\Cc2c([nH]c3ccc(Br)cc23)-c2ccccc2N1 [KP1437]
2.63 µM	5.47 µM	30.1 µM	18.5 µM	19.4 µM	14.4 µM	24.1 µM	9.46 µM	48.4 µM	13.3 µM	26.4 µM	2.59 µM	22.8 µM	20.7 µM	NC(=S)N/N=C1\Cc2c([nH]c3ccc(Br)cc23)-c2ccccc2N1 [KP 1428]
